Experimental data published in patent publication US11739098B2 (BRISTOL-MYERS SQUIBB COMPANY, priority 2017, dated 2023).
pIC50: −log10 of the molar value.

Columns and labels:
Type in all cases: cell-based
human TLR7 = biological target: T1, human TLR7 (Homo sapiens, UniProt Q9NYK1); assay: TLR7 inhibition reporter assay (HEK-Blue cells, SEAP reporter, gardiquimod stimulation); conditions: HEK-Blue cells overexpressing human TLR7, SEAP reporter, gardiquimod 7.5 μM
T1 construct: host or cells: HEK-Blue cells (HEK293-derived reporter line)
T1 sequence (Q9NYK1 27-1049): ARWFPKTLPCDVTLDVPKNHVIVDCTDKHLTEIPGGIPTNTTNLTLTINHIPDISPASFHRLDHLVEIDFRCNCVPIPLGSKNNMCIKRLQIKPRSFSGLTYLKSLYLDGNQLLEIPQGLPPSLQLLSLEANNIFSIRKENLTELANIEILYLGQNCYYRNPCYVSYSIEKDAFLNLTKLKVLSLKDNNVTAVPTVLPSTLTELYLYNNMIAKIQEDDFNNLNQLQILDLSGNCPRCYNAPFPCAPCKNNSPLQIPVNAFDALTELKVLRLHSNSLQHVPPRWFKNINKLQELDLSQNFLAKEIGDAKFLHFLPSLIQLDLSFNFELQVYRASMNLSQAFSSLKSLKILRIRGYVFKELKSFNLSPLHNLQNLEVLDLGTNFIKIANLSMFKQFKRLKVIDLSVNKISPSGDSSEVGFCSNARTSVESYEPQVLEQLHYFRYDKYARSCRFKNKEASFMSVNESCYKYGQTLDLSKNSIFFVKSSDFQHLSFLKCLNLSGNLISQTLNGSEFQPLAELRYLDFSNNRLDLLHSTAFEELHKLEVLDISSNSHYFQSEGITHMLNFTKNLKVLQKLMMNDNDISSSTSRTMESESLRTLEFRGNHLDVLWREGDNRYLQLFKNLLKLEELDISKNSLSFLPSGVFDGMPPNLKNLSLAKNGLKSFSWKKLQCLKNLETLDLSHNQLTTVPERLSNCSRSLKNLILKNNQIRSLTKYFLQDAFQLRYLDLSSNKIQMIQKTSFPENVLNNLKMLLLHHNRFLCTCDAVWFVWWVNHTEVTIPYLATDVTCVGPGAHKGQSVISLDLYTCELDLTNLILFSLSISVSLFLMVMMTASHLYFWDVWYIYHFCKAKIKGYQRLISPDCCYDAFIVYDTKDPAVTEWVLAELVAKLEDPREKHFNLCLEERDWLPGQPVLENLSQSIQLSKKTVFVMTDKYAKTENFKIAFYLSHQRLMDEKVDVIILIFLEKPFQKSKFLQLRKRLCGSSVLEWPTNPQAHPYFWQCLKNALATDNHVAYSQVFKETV
Procedure, shortened: (§1)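 After 22 h at 37 °C, SEAP secretion was measured from human TLR7-, TLR8- or TLR9-expressing HEK-Blue reporter cells given compound (0.05 nM–50 μM) 30 min before agonist: 7.5 μM gardiquimod, 15.9 μM R848 or 5 nM ODN2006 respectively. Percent inhibition referenced to agonist-plus-DMSO and known-inhibitor wells.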

human TLR8 = biological target: T2, human TLR8 (Homo sapiens, UniProt Q9NR97); assay: TLR8 inhibition reporter assay (HEK-Blue cells, SEAP reporter, R848 stimulation); conditions: HEK-Blue cells overexpressing human TLR8, SEAP reporter, R848 15.9 μM
T2 construct: host or cells: HEK-Blue cells (HEK293-derived reporter line)
T2 sequence (Q9NR97 27-1041): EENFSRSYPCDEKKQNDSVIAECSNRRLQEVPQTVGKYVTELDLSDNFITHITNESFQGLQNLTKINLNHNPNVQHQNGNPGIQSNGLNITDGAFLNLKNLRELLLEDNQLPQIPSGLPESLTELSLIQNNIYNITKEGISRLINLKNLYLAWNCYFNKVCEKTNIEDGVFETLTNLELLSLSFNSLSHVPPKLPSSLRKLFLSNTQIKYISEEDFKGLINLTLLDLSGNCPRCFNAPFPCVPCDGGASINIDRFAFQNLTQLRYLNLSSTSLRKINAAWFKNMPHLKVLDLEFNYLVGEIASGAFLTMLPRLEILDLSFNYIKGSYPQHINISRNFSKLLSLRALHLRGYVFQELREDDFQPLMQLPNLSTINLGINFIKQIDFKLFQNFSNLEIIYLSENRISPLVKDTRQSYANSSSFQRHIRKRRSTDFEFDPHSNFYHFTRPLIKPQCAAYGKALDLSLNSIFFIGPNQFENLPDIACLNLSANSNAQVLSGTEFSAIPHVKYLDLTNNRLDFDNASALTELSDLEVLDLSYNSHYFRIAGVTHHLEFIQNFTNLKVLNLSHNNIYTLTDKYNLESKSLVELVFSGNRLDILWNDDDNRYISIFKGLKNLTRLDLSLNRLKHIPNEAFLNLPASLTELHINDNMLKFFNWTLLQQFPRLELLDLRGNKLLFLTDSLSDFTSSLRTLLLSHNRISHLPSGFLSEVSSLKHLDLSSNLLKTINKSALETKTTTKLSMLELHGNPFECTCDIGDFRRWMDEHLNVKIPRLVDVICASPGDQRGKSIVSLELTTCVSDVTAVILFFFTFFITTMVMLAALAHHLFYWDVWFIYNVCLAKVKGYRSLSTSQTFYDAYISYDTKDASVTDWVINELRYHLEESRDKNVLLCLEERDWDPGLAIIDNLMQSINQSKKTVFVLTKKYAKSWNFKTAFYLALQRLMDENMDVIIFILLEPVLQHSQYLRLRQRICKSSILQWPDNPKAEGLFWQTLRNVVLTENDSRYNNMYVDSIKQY
Procedure, shortened: as §1

human TLR9 = biological target: T3, human TLR9 (Homo sapiens, UniProt Q9NR96); assay: TLR9 inhibition reporter assay (HEK-Blue cells, SEAP reporter, ODN2006 stimulation); conditions: HEK-Blue cells overexpressing human TLR9, SEAP reporter, ODN2006 5 nM
T3 construct: host or cells: HEK-Blue cells (HEK293-derived reporter line)
T3 sequence (Q9NR96 26-1032): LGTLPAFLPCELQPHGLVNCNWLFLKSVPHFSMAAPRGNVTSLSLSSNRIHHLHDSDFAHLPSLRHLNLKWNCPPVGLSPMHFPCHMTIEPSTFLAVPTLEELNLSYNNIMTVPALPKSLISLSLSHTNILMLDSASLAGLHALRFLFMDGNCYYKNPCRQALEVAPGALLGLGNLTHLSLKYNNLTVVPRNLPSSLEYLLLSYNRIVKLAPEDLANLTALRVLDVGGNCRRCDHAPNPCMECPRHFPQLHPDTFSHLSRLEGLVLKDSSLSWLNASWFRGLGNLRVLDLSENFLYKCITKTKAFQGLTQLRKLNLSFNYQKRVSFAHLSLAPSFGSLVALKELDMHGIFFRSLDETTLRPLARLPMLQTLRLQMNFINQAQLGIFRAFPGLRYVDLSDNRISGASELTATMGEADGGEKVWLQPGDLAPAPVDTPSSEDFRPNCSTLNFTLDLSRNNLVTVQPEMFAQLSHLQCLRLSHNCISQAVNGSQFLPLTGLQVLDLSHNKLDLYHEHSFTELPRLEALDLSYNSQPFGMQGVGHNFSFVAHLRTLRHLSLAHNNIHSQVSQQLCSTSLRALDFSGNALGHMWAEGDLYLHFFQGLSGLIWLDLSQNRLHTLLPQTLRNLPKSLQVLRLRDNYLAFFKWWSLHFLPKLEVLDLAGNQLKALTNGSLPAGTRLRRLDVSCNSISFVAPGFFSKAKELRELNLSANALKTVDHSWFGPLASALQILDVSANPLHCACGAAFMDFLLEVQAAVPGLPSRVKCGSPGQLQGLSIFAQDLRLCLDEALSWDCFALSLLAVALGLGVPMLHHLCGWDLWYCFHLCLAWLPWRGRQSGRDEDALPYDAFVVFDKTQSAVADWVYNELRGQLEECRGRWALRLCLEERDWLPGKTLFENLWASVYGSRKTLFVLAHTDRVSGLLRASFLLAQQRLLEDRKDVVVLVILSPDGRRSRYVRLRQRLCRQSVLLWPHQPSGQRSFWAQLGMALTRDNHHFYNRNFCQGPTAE
Procedure, shortened: as §1

Compound	pIC50 (human TLR7)	pIC50 (human TLR8)	pIC50 (human TLR9)
Cc1cc(-c2[nH]c3ccc(C4CCN(C(=O)CN(C)C)CC4)cc3c2C(C)C)cc2cncn12 [Example 531, 2-(dimethylamino)-1-(4-(3-isopropyl-2-(5-methylimidazo[1,5-a]pyridin-7-yl)-1H-indol-5-yl)piperidin-1-yl)ethan-1-one]	> 7.00	> 7.00	6.00 to 7.00
CCc1c(-c2cc3ccccc3o2)[nH]c2ccc(C3CCNCC3)cc12 [Example 186, 2-(benzofuran-2-yl)-3-ethyl-5-(piperidin-4-yl)-1H-indole]	4.30 to 6.00	4.30 to 6.00	4.30 to 6.00
Cc1nc(CN2CCC(c3ccc4[nH]c(-c5ccc6nccn6c5)c(CC(F)F)c4c3)CC2)c[nH]1 [Example 939, 6-(3-(2,2-difluoroethyl)-5-(1-((2-methyl-1H-imidazol-4-yl)methyl)piperidin-4-yl)-1H-indol-2-yl)imidazo[1,2-a]pyridine]	6.00 to 7.00	6.00 to 7.00	6.00 to 7.00
CNCCN1CCC(c2ccc3[nH]c(-c4ccnc5[nH]ncc45)c(C(C)C)c3c2)C(F)C1 (stereo not drawn) [Example 679, 2-(3-fluoro-4-(3-isopropyl-2-(1H-pyrazolo[3,4-b]pyridin-4-yl)-1H-indol-5-yl)piperidin-1-yl)-N-methylethan-1-amine]	> 7.00	> 7.00	6.00 to 7.00
CCN(CC)CCN1CCC(c2ccc3[nH]c(-c4ccnc5[nH]ncc45)c(C(C)C)c3c2)CC1 [Example 661, N,N-diethyl-2-(4-(3-isopropyl-2-(1H-pyrazolo[3,4-b]pyridin-4-yl)-1H-indol-5-yl)piperidin-1-yl)ethan-1-amine]	> 7.00	> 7.00	6.00 to 7.00
CNC(=O)CN1CCC(c2ccc3[nH]c(-c4cc(C)c5oc(=O)n(C)c5c4)c(C(C)C)c3c2)CC1 [Example 336, 2-(4-(2-(3,7-dimethyl-2-oxo-2,3-dihydrobenzo[d]oxazol-5-yl)-3-isopropyl-1H-indol-5-yl)piperidin-1-yl)-N-methylacetamide]	> 7.00	6.00 to 7.00	4.30 to 6.00
Cc1c(-c2[nH]c3ccc(C4CCN(CC(C)(C)O)CC4)cc3c2C(C)C)nn2ncnc2c1C [Example 747, 1-(4-(2-(7,8-dimethyl-[1,2,4]triazolo[1,5-b]pyridazin-6-yl)-3-isopropyl-1H-indol-5-yl)piperidin-1-yl)-2-methylpropan-2-ol]	> 7.00	> 7.00	4.30 to 6.00
Cc1cc2nnnn2cc1-c1[nH]c2ccc(C3CCN(Cc4ncn(C)n4)CC3)cc2c1C(C)C [Example 886, 6-(3-isopropyl-5-(1-((1-methyl-1H-1,2,4-triazol-3-yl)methyl)piperidin-4-yl)-1H-indol-2-yl)-7-methyltetrazolo[1,5-a]pyridine]	> 7.00	> 7.00	4.30 to 6.00
Cc1cc(-c2[nH]c3ccc(C4CCN(CC(=O)N(C)C)CC4)cc3c2C(C)C)cn2c(C#N)cnc12 [Example 430, 2-(4-(2-(3-cyano-8-methylimidazo [1,2-a]pyridin-6-yl)-3-isopropyl-1H-indol-5-yl)piperidin-1-yl)-N,N-dimethylacetamide]	6.00 to 7.00	> 7.00	4.30 to 6.00
CC(C)c1c(-c2cnc3c(cnn3C)c2)[nH]c2ccc(C3CCN(C(=O)CN(C)C)CC3)cc12 [Example 504, 2-(dimethylamino)-1-(4-(3-isopropyl-2-(1-methyl-1H-pyrazolo[3,4-b]pyridin-5-yl)-1H-indol-5-yl)piperidin-1-yl)ethan-1-one]	> 7.00	6.00 to 7.00	4.30 to 6.00
Cc1cc(-c2[nH]c3ccc(C4CCN(CC(=O)N(C)C)CC4)cc3c2C(C)C)cc2ocnc12 [Example 291, 2-(4-(3-isopropyl-2-(4-methylbenzo[d]oxazol-6-yl)-1H-indol-5-yl)piperidin-1-yl)-N,N-dimethylacetamide]	> 7.00	> 7.00	4.30 to 6.00
Cc1cc(-c2[nH]c3ccc(C4CCN(CCCS(C)(=O)=O)CC4)cc3c2C(C)C)cn2nnnc12 [Example 787, 6-(3-isopropyl-5-(1-(3-(methylsulfonyl)propyl)piperidin-4-yl)-1H-indol-2-yl)-8-methyltetrazolo[1,5-a]pyridine]	> 7.00	> 7.00	4.30 to 6.00
Cc1cc(-c2[nH]c3ccc(C4CCN(C5CCS(=O)(=O)CC5)CC4)cc3c2C(C)C)cn2nnnc12 [Example 788, 4-(4-(3-isopropyl-2-(8-methyltetrazolo[1,5-a]pyridin-6-yl)-1H-indol-5-yl)piperidin-1-yl)tetrahydro-2H-thiopyran 1,1-dioxide]	> 7.00	> 7.00	4.30 to 6.00
CC(C)c1c(-c2cn3ccnc3cc2Cl)[nH]c2ccc(C3CCN(CC(=O)N(C)C)CC3)cc12 [Example 428, 2-(4-(2-(7-chloroimidazo[1,2-a]pyridin-6-yl)-3-isopropyl-1H-indol-5-yl)piperidin-1-yl)-N,N-dimethylacetamide]	> 7.00	> 7.00	4.30 to 6.00
